Measurements reported in patent US20160120863A1, “SLC2A TRANSPORTER INHIBITORS” (IOMET PHARMA LTD., priority 2013, published 2016).

Molecular target: T1, human GLUT1 (Homo sapiens, UniProt P11166)
T1 construct: expressed in transfected cells
T1 sequence (P11166 1-492): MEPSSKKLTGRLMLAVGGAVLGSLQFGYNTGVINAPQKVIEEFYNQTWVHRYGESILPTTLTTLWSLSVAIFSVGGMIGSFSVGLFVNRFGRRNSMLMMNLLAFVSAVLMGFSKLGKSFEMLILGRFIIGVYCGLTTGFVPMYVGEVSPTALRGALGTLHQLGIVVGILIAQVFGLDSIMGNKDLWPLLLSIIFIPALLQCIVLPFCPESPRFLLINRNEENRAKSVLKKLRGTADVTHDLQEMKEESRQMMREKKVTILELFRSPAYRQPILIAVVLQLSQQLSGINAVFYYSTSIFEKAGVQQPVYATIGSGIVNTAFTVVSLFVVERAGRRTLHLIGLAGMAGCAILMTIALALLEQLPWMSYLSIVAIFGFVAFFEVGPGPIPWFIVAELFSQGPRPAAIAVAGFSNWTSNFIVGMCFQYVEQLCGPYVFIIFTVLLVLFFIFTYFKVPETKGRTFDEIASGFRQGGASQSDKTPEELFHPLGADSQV
Test: [3H]-deoxy-D-glucose uptake assay, GLUT1
Assay type: cell-based
Details: [3H]-deoxy-D-glucose uptake in HEK293 cells stably expressing human GLUT1
Method: HEK293 cells were engineered to stably express either human GLUT1, GLUT2, GLUt3 or GLUT4 by transfection with the pReceiver-Lv105 plasmid, containing either hGLUT1, hGLUT2, hGLUT3, or hGLUT4 gene constructs with lipofectamine 2000, hGLUT1- hGLUT2- hGLUT3- or hGLUT4-overexpressing polyclonal populations were isolated under purinomycin selective pressure (1 μg/ml) and maintained in Dulbecco's modified Eagle's medium supplemented with 1 μg/ml purinomycin+10% foetal bovine serum (FBS).
60,000 cells per well were seeded overnight into poly-D-lysine coasted 96-well plates. […] 90 μl of test compounds were added in glucose-free uptake buffer and cells were incubated at 37° C. for 30 min.
Cells were then washed twice with ice-cold PBS and 100 μl of Microscint-20 was added per well. Glucose uptake was quantified with a scintillation counter. The half maximal inhibitory concentration (IC50) (a measure of the effectiveness of the test compound in inhibiting glucose uptake) was determined.

| GLUT1 pIC50 | Compound |
| --- | --- |
| +− (pIC50 < 4.00) | CC(C)(C)OC(=O)N1CCN(Cc2c(-c3ccc(Cl)cc3)nc3ccc(-c4ccccc4)cn23)CC1 [Compound 88] |
| + (pIC50 4.00-4.99) | Clc1ccc(-c2nc3ccc(-c4ccccc4)cn3c2CN2CCNCC2)cc1 [Compound 89] |
| +− (pIC50 < 4.00) | O=S(=O)(c1cccc(F)c1)N1CCN(Cc2c(-c3ccc(Cl)cc3)nc3ccc(-c4ccccc4)cn23)CC1 [Compound 90] |
| +− (pIC50 < 4.00) | N#Cc1cccc(-c2ccc3nc(-c4ccc(Cl)cc4)c(CN4CCOCC4)n3c2)c1 [Compound 92] |
| + (pIC50 4.00-4.99) | NC(=O)c1ccccc1-c1ccc2nc(-c3ccc(Cl)cc3)c(CN3CCOCC3)n2c1 [Compound 94] |
| + (pIC50 4.00-4.99) | NC(=O)c1ccc(-c2ccc3nc(-c4ccc(Cl)cc4)c(CN4CCOCC4)n3c2)cc1 [Compound 95] |
| + (pIC50 4.00-4.99) | CN(C)Cc1c(-c2ccc(Cl)cc2)nc2ccc(-c3ccccc3)cn12 [Compound 97] |
| + (pIC50 4.00-4.99) | N#Cc1cccc(-c2nc3ccc(-c4ccccc4)cn3c2CN2CCOCC2)c1 [Compound 100] |
| ++ (pIC50 5.00-5.99) | COc1ccc(-c2nc3ccc(-c4ccccc4)cn3c2CN2CCOCC2)cc1 [Compound 101] |
| ++ (pIC50 5.00-5.99) | COc1cccc(-c2nc3ccc(-c4ccccc4)cn3c2CN2CCOCC2)c1 [Compound 102] |
| + (pIC50 4.00-4.99) | c1ccc(-c2ccc3nc(-c4ccccc4)c(CN4CCOCC4)n3c2)cc1 [Compound 103] |
| + (pIC50 4.00-4.99) | COc1ccccc1-c1nc2ccc(-c3ccccc3)cn2c1CN1CCOCC1 [Compound 104] |
| ++ (pIC50 5.00-5.99) | Clc1ccccc1-c1nc2ccc(-c3ccccc3)cn2c1CN1CCOCC1 [Compound 105] |
| +− (pIC50 < 4.00) | N#Cc1ccc(-c2nc3ccc(-c4ccccc4)cn3c2CN2CCOCC2)cc1 [Compound 106] |
| ++ (pIC50 5.00-5.99) | Clc1cccc(-c2nc3ccc(-c4ccccc4)cn3c2CN2CCOCC2)c1 [Compound 107] |
| +− (pIC50 < 4.00) | NC(=O)c1ccc(-c2nc3ccc(-c4ccccc4)cn3c2CN2CCOCC2)cc1 [Compound 109] |
| + (pIC50 4.00-4.99) | Clc1ccc(-c2nc3ccc(-c4cncnc4)cn3c2CN2CCOCC2)cc1 [Compound 110] |

| GLUT1 pIC50 | Compound |
| --- | --- |
| ++ (pIC50 5.00-5.99) | FC(F)(F)c1ccc(-c2nc3ccc(-c4ccccc4)cn3c2CN2CCOCC2)cc1 [Compound 112] |
| +++ (pIC50 ≧ 6.00) | Cc1ccccc1-c1ccc2nc(-c3ccc(Cl)cc3)c(CN3CCOCC3)n2c1 [Compound 115] |
| + (pIC50 4.00-4.99) | CCN(CC)C(=O)c1ccc2nc(-c3ccc(Cl)cc3)c(CN3CCOCC3)n2c1 [Compound 117] |
| + (pIC50 4.00-4.99) | CCNC(=O)c1ccc2nc(-c3ccc(Cl)cc3)c(CN3CCOCC3)n2c1 [Compound 118] |
| ++ (pIC50 5.00-5.99) | Clc1ccc(-c2nc3ccc(-c4cccs4)cn3c2CN2CCOCC2)cc1 [Compound 119] |
| ++ (pIC50 5.00-5.99) | Clc1ccc(-c2nc3ccc(-c4ccccn4)cn3c2CN2CCOCC2)cc1 [Compound 120] |
| +− (pIC50 < 4.00) | CCNC(=O)c1cccc2nc(-c3ccc(Cl)cc3)c(CN3CCOCC3)n12 [Compound 121] |
| ++ (pIC50 5.00-5.99) | Clc1ccc(-c2nc3ccc(N4CCOCC4)cn3c2CN2CCOCC2)cc1 [Compound 122] |
| + (pIC50 4.00-4.99) | CN1CCN(Cc2c(-c3ccc(Cl)cc3)nc3ccc(-c4ccccc4)cn23)CC1 [Compound 125] |
| +++ (pIC50 ≧ 6.00) | COc1ccccc1C(=O)N1CCN(Cc2c(-c3ccc(Cl)cc3)nc3ccc(-c4ccccc4)cn23)CC1 [Compound 128] |
| +++ (pIC50 ≧ 6.00) | COc1cccc(C(=O)N2CCN(Cc3c(-c4ccc(Cl)cc4)nc4ccc(-c5ccccc5)cn34)CC2)c1 [Compound 129] |
| ++ (pIC50 5.00-5.99) | O=C1CN(Cc2c(-c3ccc(Cl)cc3)nc3ccc(-c4ccccc4)cn23)CCN1 [Compound 130] |
| +++ (pIC50 ≧ 6.00) | O=C(C1CC1)N1CCN(Cc2c(-c3ccc(Cl)cc3)nc3ccc(-c4ccccc4)cn23)CC1 [Compound 133] |
| ++ (pIC50 5.00-5.99) | O=C1CN(Cc2c(-c3ccc(Cl)cc3)nc3ccc(-c4ccccc4)cn23)CCN1Cc1ccccc1 [Compound 134] |
| + (pIC50 4.00-4.99) | c1ccc(-c2ccc3nc(-c4cccnc4)c(CN4CCOCC4)n3c2)cc1 [Compound 139] |
| +++ (pIC50 ≧ 6.00) | O=C(c1ccccn1)N1CCN(Cc2c(-c3ccc(Cl)cc3)nc3ccc(-c4ccccc4)cn23)CC1 [Compound 144] |

Further lines, the compound ahead of its results:

| Compound | GLUT1 pIC50 |
| --- | --- |
| CC(=O)N1CCN(Cc2c(-c3cccc([N+](=O)[O-])c3)nc3ccc(-c4ccccc4)cn23)CC1 [Compound 59] | ++ (pIC50 5.00-5.99) |
| CC(C)CC(=O)N1CCN(Cc2c(-c3cccc([N+](=O)[O-])c3)nc3ccc(-c4ccccc4)cn23)CC1 [Compound 60] | + (pIC50 4.00-4.99) |
| CC(=O)N1CCN(Cc2c(-c3ccc(Cl)cc3)nc3ccc(-c4ccccc4)cn23)CC1 [Compound 61] | +++ (pIC50 ≧ 6.00) |
| CCC(=O)N1CCN(Cc2c(-c3ccc(Cl)cc3)nc3ccc(-c4ccccc4)cn23)CC1 [Compound 62] | +++ (pIC50 ≧ 6.00) |
| O=C(Cc1ccc(F)cc1)N1CCN(Cc2c(-c3ccc(Cl)cc3)nc3ccc(-c4ccccc4)cn23)CC1 [Compound 63] | ++ (pIC50 5.00-5.99) |
| O=C(c1ccccc1Cl)N1CCN(Cc2c(-c3ccc(Cl)cc3)nc3ccc(-c4ccccc4)cn23)CC1 [Compound 64] | + (pIC50 4.00-4.99) |
| COc1cccc(-c2nc3ccc(-c4ccccc4)cn3c2CN2CCN(C(=O)CC(C)(C)C)CC2)c1 [Compound 65] | ++ (pIC50 5.00-5.99) |
| O=C(C1CCCC1)N1CCN(Cc2c(-c3cccc([N+](=O)[O-])c3)nc3ccc(-c4ccccc4)cn23)CC1 [Compound 66] | ++ (pIC50 5.00-5.99) |
| Cc1ccc(-c2nc3ccc(-c4ccccc4)cn3c2CN2CCN(C(=O)c3cccs3)CC2)cc1 [Compound 67] | +++ (pIC50 ≧ 6.00) |
| COc1ccc(NC(=O)N2CCN(Cc3c(-c4ccc(Cl)cc4)nc4ccc(-c5ccccc5)cn34)CC2)cc1 [Compound 68] | + (pIC50 4.00-4.99) |
| Cc1ccc(C(=O)N2CCN(Cc3c(-c4ccc(Cl)cc4)nc4ccc(-c5ccccc5)cn34)CC2)cc1 [Compound 69] | +++ (pIC50 ≧ 6.00) |
| COc1ccc(C(=O)N2CCN(Cc3c(-c4ccc(F)cc4)nc4ccc(-c5ccccc5)cn34)CC2)cc1 [Compound 70] | +++ (pIC50 ≧ 6.00) |
| COc1cccc(-c2nc3ccc(-c4ccccc4)cn3c2CN2CCN(C(=O)c3ccccc3F)CC2)c1 [Compound 71] | +++ (pIC50 ≧ 6.00) |
| c1ccc(-c2ccc3nc(-c4ccncc4)c(CN4CCOCC4)n3c2)cc1 [Compound 72] | +− (pIC50 < 4.00) |
| COCc1c(-c2ccc(Cl)cc2)nc2ccc(-c3ccccc3)cn12 [Compound 73] | + (pIC50 4.00-4.99) |
| Clc1ccc(-c2nc3cnc(-c4ccccc4)cn3c2CN2CCOCC2)cc1 [Compound 75] | +++ (pIC50 ≧ 6.00) |
| Fc1ccc(-c2nc3ccc(-c4ccccc4)cn3c2CN2CCOCC2)cc1 [Compound 76] | + (pIC50 4.00-4.99) |
| Clc1ccc(-c2nc3ncc(-c4ccccc4)cn3c2CN2CCOCC2)cc1 [Compound 77] | +− (pIC50 < 4.00) |
| CCNC(=O)c1nc2ccc(-c3ccccc3)cn2c1CN1CCOCC1 [Compound 78] | +− (pIC50 < 4.00) |
| Fc1cccc(-c2ccc3nc(-c4ccc(Cl)cc4)c(CN4CCOCC4)n3c2)c1 [Compound 81] | + (pIC50 4.00-4.99) |
| Clc1ccc(-c2nc3ccc(-c4ccncc4)cn3c2CN2CCOCC2)cc1 [Compound 82] | ++ (pIC50 5.00-5.99) |
| Clc1ccc(-c2nc3ccc(-c4cccnc4)cn3c2CN2CCOCC2)cc1 [Compound 83] | ++ (pIC50 5.00-5.99) |
| COc1cccc(-c2ccc3nc(-c4ccc(Cl)cc4)c(CN4CCOCC4)n3c2)c1 [Compound 84] | ++ (pIC50 5.00-5.99) |
| COc1ccccc1-c1ccc2nc(-c3ccc(Cl)cc3)c(CN3CCOCC3)n2c1 [Compound 85] | ++ (pIC50 5.00-5.99) |
| COc1ccc(-c2ccc3nc(-c4ccc(Cl)cc4)c(CN4CCOCC4)n3c2)cc1 [Compound 86] | + (pIC50 4.00-4.99) |
| Clc1ccc(-c2nc3ccc(C4CC4)cn3c2CN2CCOCC2)cc1 [Compound 87] | ++ (pIC50 5.00-5.99) |
| Clc1ccc(-c2nc3ccc(-c4ccccc4)cn3c2CN2CCCCC2)cc1 [Compound 98] | + (pIC50 4.00-4.99) |
| Clc1ccc(-c2nc3ccc(Br)cn3c2CN2CCOCC2)cc1 [Compound 124] | + (pIC50 4.00-4.99) |
